pIC50: −log10 of the molar value.
Test system: Plasmodium falciparum (3D7)
Test: Anti-malarial screen, parasite growth by SybrGreen staining
Type: cell-based
Details: dose response assay, test molecules from 10 μM to 1 nM, 60 hours incubation, SybrGreen read out
Description: Plasmodium falciparum (3D7; Malaria Research and Reference Reagent Resource Center ID NO: MRA-102) is cultured in the laboratory as per standard protocols. Briefly, P. falciparum is cultured using 2% hematocrit washed RBCs, separated from freshly collected human blood, in Roswell Park Memorial Institute (RPMI) medium containing glutamine, sodium bicarbonate and antibiotics. Parasites are synchronized using either 5% sorbitol treatment or by enriching late stage parasites using a 70% percol cushion. 200 μls of the diluted parasite culture at 2% parasitemia and 2% hematocrit, is added to each well in a 96 well plate pre-seeded with the compound of interest at the required concentration. In general, compounds being screened for the first time are tested at a single concentration of 10 μM to detect any effect they may have on parasite growth. The master stocks and dilutions of the compounds are prepared in cell culture grade DMSO. NOTE: DMSO only treatment control is done and the results are used for normalizing the data obtained from compound treatment. All compounds are plated in triplicates. Each 96 well plate also includes negative control (compound untreated culture) and positive control (standard anti-malarial treated culture). Standard anti-malarials used are chloroquine, artemisinine and atovaquone, each at 1 μM concentration. After plating, the culture is incubated in standard growth condition for 60 hours, after which the cultures are processed for testing the effect of compounds on parasite growth as given below. We have standardized a modified SybrGreen dye based staining protocol (Plouffe D et. al. in Proc Natl Acad Sci, 2008, 105(26), 9059-64) for estimating parasite growth. SybrGreen dye binds to DNA and only the DNA bound dye gives a specific fluorescence emission ([…]) when excited ([…]). Since only the parasites have DNA (as RBCs are devoid of nucleus), the SybrGreen signal is a direct indictor of parasite growth. We have standardized a plate reader based read out assay for quantifying relative parasite growth (or conversely % inhibition of growth) in untreated, standard anti-malarial treated and test molecules treated P. falciparum cultures. 25 μl of 10× staining solution (0.5% Triton X100 & 10× SybrGreen dye in phosphate buffered saline) is added to each sample in 96 well plate, mixed and incubated for 30 min before taking readings. Data obtained is then tabulated to compare parasite growth between untreated, standard anti-malarial treated and compound treated parasite cultures. Compounds showing greater than 80% reduction in parasite growth are selected from this primary screening for carrying out dose response analysis using the respective test molecules from 10 μM to 1 nM. Data from this experiment is used for the calculation of IC50 values for the respective test molecules. Data from the preliminary screen (at 10 μM only) is shown in FIG. 1 and data from the dose response experiment is shown in FIG. 2.

| pIC50 | SMILES |
| --- | --- |
| 5.42 | CC1=C[C@@H]2O[C@H](c3ccc(Cl)cc3)c3ccccc3N2c2ccccc21 |
| 5.45 | Cc1cc2c(cc1C)N1c3ccccc3C=C[C@@H]1O[C@@H]2c1ccc(Cl)cc1 |

Further lines, the molecule ahead of its results:

| SMILES | pIC50 |
| --- | --- |
| C1=CC2OC(c3ccccc3)(c3ccccc3)c3ccccc3N2c2ccccc21 (stereo not drawn) | 5.41 |
| O=C1C=CC2(C=C1)OC1C=Cc3ccccc3N1c1ccccc12 (stereo not drawn) | 5.77 |
| O=C(c1ccccc1)C1(c2ccccc2)OC2C=Cc3ccccc3N2c2ccccc21 (stereo not drawn) | 5.58 |
| O=C1C(O)=C([C@H]2CC[C@H](c3ccc(Cl)cc3)CC2)C(=O)c2ccccc21 [Atovaquone, reference compound] | 8.15 |
